Data as given in patent publication US10399940B2, “Substituted pyrrolidines and methods of use” (AbbVie S.à.r.l., priority 2016, dated 2019).
Read-outs that look alike come from different tables or passages of the source.

Target: T1, F508delCFTR (Homo sapiens, UniProt P13569, DEL508-508)
T1 construct: expressed in transfected cells; host or cells: CFBE41o- (human lung derived epithelial cell line), doxycycline-inducible expression
Assay: Cell Surface Expression-Horse Radish Peroxidase (CSE-HRP) assay
Type: cell-based
Conditions: CFBE41o-F508delCFTR-HRP cells; for Maximum % activity (with co-corrector): with co-corrector (2 μM); for Maximum % activity (with co-corrector) / Maximum % activity (without co-corrector): normalized to on-plate positive control, highest concentration 20 μM
Procedure, shortened: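 Surface F508delCFTR-HRP was read by luminol luminescence after 18–24 h compound exposure at 33 °C, without or with 2 μM co-corrector. Doses were eight 3-fold steps from 20 μM, in doxycycline-induced (0.5 μg/mL, 72 h) CFBE41o- cells. % activity was scaled to the on-plate 2 μM positive control minus DMSO; EC50 came from a variable-slope sigmoid fit.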

[1] = test compound without co-corrector, 18-24 hours at 33° C., read-out: EC50 (without co-corrector)
[2] = with co-corrector (2 μM of 3-[(2R,4R)-4-({[1-(2,2-difluoro-1,3-benzodioxol-5-yl)cyclopropyl]carbonyl}amino)-7-methoxy-3,4-dihydro-2H-chromen-2-yl]benzoic acid), read-out: EC50 (with co-corrector)

T1 sequence (P13569 with tags, fused parts or gaps DEL508-508): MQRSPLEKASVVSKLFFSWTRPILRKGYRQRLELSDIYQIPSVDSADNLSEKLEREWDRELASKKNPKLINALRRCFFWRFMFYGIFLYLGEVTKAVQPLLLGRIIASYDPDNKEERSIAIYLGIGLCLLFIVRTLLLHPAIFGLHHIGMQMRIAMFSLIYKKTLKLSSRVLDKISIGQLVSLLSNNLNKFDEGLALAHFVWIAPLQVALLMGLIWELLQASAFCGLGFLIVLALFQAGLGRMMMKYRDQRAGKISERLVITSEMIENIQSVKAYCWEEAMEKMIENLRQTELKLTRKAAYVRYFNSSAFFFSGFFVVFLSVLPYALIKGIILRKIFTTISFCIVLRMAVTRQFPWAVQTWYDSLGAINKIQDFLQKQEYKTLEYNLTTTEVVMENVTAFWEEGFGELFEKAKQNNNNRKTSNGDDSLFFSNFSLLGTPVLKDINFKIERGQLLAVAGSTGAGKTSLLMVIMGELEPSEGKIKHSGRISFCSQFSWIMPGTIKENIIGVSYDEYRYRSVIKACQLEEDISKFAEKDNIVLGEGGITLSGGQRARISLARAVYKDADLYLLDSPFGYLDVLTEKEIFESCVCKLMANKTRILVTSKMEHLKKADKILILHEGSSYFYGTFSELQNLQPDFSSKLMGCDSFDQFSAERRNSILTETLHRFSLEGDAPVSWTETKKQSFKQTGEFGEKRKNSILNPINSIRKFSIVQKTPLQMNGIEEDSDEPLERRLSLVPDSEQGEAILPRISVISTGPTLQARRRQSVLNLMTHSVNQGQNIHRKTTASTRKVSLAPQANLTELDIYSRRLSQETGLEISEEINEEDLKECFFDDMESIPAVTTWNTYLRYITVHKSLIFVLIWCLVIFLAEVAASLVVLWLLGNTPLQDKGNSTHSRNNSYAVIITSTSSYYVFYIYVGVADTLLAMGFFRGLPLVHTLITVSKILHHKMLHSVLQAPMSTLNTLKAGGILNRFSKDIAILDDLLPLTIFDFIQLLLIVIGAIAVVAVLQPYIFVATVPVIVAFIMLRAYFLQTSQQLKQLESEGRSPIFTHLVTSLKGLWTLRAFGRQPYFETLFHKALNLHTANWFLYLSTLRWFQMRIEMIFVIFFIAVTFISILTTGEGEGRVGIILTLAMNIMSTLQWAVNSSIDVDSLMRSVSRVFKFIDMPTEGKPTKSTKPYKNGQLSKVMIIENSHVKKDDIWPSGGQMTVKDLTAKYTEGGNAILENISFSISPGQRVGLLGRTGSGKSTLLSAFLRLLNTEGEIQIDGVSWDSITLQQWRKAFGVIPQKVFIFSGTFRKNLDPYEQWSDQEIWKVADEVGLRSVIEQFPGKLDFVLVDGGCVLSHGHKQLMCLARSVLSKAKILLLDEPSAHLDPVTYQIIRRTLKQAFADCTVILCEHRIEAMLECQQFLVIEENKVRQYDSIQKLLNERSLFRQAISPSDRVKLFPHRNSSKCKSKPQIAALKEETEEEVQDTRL

EC50 [1] | EC50 [2] | Maximum % activity (with co-corrector) | Maximum % activity (without co-corrector) | SMILES
1000 to 10000 nM | 1000 to 10000 nM | +++ (≥350) | +++ (≥200) | COc1ncc(C(F)(F)F)cc1CO[C@H]1[C@H](C(C)(C)C)[C@@H](C(=O)O)N(C(=O)[C@@H]2CCCCO2)[C@H]1c1ccccc1-c1ccn(C)c1 [Example 199, (2S,3R,4S,5S)-3-tert-butyl-4-{[2-methoxy-5-(trifluoromethyl)pyridin-3-yl]methoxy}-5-[2-(1-methyl-1H-pyrrol-3-yl)phenyl]-1-[(2S)-oxane-2-carbonyl]pyrrolidine-2-carboxylic acid]
1000 to 10000 nM | < 1000 nM | +++ (≥350) | +++ (≥200) | COc1ncc(C(F)(F)F)cc1CO[C@H]1[C@H](C(C)(C)C)[C@@H](C(=O)O)N(C(=O)[C@@H]2CCCCO2)[C@H]1c1ccccc1-c1ccccc1Cl [Example 200, (2S,3R,4S,5S)-3-tert-butyl-5-(2′-chloro[1,1′-biphenyl]-2-yl)-4-{[2-methoxy-5-(trifluoromethyl)pyridin-3-yl]methoxy}-1-[(2S)-oxane-2-carbonyl]pyrrolidine-2-carboxylic acid]
1000 to 10000 nM | 1000 to 10000 nM | +++ (≥350) | +++ (≥200) | COc1ncc(C(F)(F)F)cc1CO[C@H]1[C@H](C(C)(C)C)[C@@H](C(=O)O)N(C(=O)[C@@H]2CCCCO2)[C@H]1c1ccccc1-c1cccc(OC(F)(F)F)c1 [Example 201, (2S,3R,4S,5S)-3-tert-butyl-4-{[2-methoxy-5-(trifluoromethyl)pyridin-3-yl]methoxy}-1-[(2S)-oxane-2-carbonyl]-5-[3′-(trifluoromethoxy) [1,1′-biphenyl]-2-yl]pyrrolidine-2-carboxylic acid]
1000 to 10000 nM | 1000 to 10000 nM | +++ (≥350) | +++ (≥200) | COc1ncc(C(F)(F)F)cc1CO[C@H]1[C@H](C(C)(C)C)[C@@H](C(=O)O)N(C(=O)[C@@H]2CCCCO2)[C@H]1c1ccccc1-c1ccc(Cl)cc1 [Example 202, (2S,3R,4S,5S)-3-tert-butyl-5-(4′-chloro[1,1′-biphenyl]-2-yl)-4-{[2-methoxy-5-(trifluoromethyl)pyridin-3-yl]methoxy}-1-[(2S)-oxane-2-carbonyl]pyrrolidine-2-carboxylic acid]
1000 to 10000 nM | 1000 to 10000 nM | +++ (≥350) | +++ (≥200) | COc1ncc(C(F)(F)F)cc1CO[C@H]1[C@H](C(C)(C)C)[C@@H](C(=O)O)N(C(=O)[C@@H]2CCCCO2)[C@H]1c1ccccc1-c1ccc2c(c1)OCO2 [Example 203, (2S,3R,4S,5S)-5-[2-(2H-1,3-benzodioxol-5-yl)phenyl]-3-tert-butyl-4-{[2-methoxy-5-(trifluoromethyl)pyridin-3-yl]methoxy}-1-[(2S)-oxane-2-carbonyl]pyrrolidine-2-carboxylic acid]
1000 to 10000 nM | < 1000 nM | +++ (≥350) | +++ (≥200) | COc1ncc(C(F)(F)F)cc1CO[C@H]1[C@H](C(C)(C)C)[C@@H](C(=O)O)N(C(=O)[C@@H]2CCCCO2)[C@H]1c1ccccc1-c1ccccc1F [Example 204, (2S,3R,4S,5S)-3-tert-butyl-5-(2′-fluoro[1,1′-biphenyl]-2-yl)-4-{[2-methoxy-5-(trifluoromethyl)pyridin-3-yl]methoxy}-1-[(2S)-oxane-2-carbonyl]pyrrolidine-2-carboxylic acid]

The remaining lines, values behind:

SMILES | EC50 [1] | EC50 [2] | Maximum % activity (with co-corrector) | Maximum % activity (without co-corrector)
COc1nc2ccccc2cc1CO[C@H]1[C@H](C(C)(C)C)[C@@H](C(=O)O)N(C(=O)[C@@H]2CCCCO2)[C@H]1c1ccccc1C [Example 189, (2S,3R,4S,5S)-3-tert-butyl-4-[(2-methoxyquinolin-3-yl)methoxy]-5-(2-methylphenyl)-1-[(2S)-oxane-2-carbonyl]pyrrolidine-2-carboxylic acid] | 1000 to 10000 nM | 1000 to 10000 nM | +++ (≥350) | +++ (≥200)
COc1ncc(C(F)(F)F)cc1CO[C@H]1[C@H](C(C)(C)C)[C@@H](C(=O)O)N(C(=O)[C@@H]2CCCCO2)[C@H]1c1ccccc1-c1ccc(F)cc1 [Example 190, (2S,3R,4S,5S)-3-tert-butyl-5-(4′-fluoro[1,1′-biphenyl]-2-yl)-4-{[2-methoxy-5-(trifluoromethyl)pyridin-3-yl]methoxy}-1-[(2S)-oxane-2-carbonyl]pyrrolidine-2-carboxylic acid] | 1000 to 10000 nM | 1000 to 10000 nM | +++ (≥350) | +++ (≥200)
COc1ncc(C(F)(F)F)cc1CO[C@H]1[C@H](C(C)(C)C)[C@@H](C(=O)O)N(C(=O)[C@@H]2CCCCO2)[C@H]1c1ccccc1-c1cccc(Cl)c1 [Example 191, (2S,3R,4S,5S)-3-tert-butyl-5-(3′-chloro[1,1′-biphenyl]-2-yl)-4-{[2-methoxy-5-(trifluoromethyl)pyridin-3-yl]methoxy}-1-[(2S)-oxane-2-carbonyl]pyrrolidine-2-carboxylic acid] | 1000 to 10000 nM | 1000 to 10000 nM | +++ (≥350) | +++ (≥200)
COc1ncc(C(F)(F)F)cc1CO[C@H]1[C@H](C(C)(C)C)[C@@H](C(=O)O)N(C(=O)[C@@H]2CCCCO2)[C@H]1c1ccccc1C1=CCN(C)CC1 [Example 192, (2S,3R,4S,5S)-3-tert-butyl-4-{[2-methoxy-5-(trifluoromethyl)pyridin-3-yl]methoxy}-5-[2-(1-methyl-1,2,3,6-tetrahydropyridin-4-yl)phenyl]-1-[(2S)-oxane-2-carbonyl]pyrrolidine-2-carboxylic acid] | 1000 to 10000 nM | 1000 to 10000 nM | ++ (≥150 and <350) | + (<100)
COc1ncc(C(F)(F)F)cc1CO[C@H]1[C@H](C(C)(C)C)[C@@H](C(=O)O)N(C(=O)[C@@H]2CCCCO2)[C@H]1c1ccccc1-c1cnn(C)c1 [Example 193, (2S,3R,4S,5S)-3-tert-butyl-4-{[2-methoxy-5-(trifluoromethyl)pyridin-3-yl]methoxy}-5-[2-(1-methyl-1H-pyrazol-4-yl)phenyl]-1-[(2S)-oxane-2-carbonyl]pyrrolidine-2-carboxylic acid] | 1000 to 10000 nM | 1000 to 10000 nM | +++ (≥350) | ++ (≥100 and <200)
COc1ncc(C(F)(F)F)cc1CO[C@H]1[C@H](C(C)(C)C)[C@@H](C(=O)O)N(C(=O)[C@@H]2CCCCO2)[C@H]1c1ccccc1-c1cccc(N(C)C)c1 [Example 194, (2S,3R,4S,5S)-3-tert-butyl-5-[3′-(dimethylamino) [1,1′-biphenyl]-2-yl]-4-{[2-methoxy-5-(trifluoromethyl)pyridin-3-yl]methoxy}-1-[(2S)-oxane-2-carbonyl]pyrrolidine-2-carboxylic acid] | 1000 to 10000 nM | < 1000 nM | +++ (≥350) | +++ (≥200)
COc1ncc(C(F)(F)F)cc1CO[C@H]1[C@H](C(C)(C)C)[C@@H](C(=O)O)N(C(=O)[C@@H]2CCCCO2)[C@H]1c1ccccc1-c1ccccc1C [Example 195, (2S,3R,4S,5S)-3-tert-butyl-4-{[2-methoxy-5-(trifluoromethyl)pyridin-3-yl]methoxy}-5-(2′-methyl[1,1′-biphenyl]-2-yl)-1-[(2S)-oxane-2-carbonyl]pyrrolidine-2-carboxylic acid] | 1000 to 10000 nM | 1000 to 10000 nM | +++ (≥350) | +++ (≥200)
COc1ncc(C(F)(F)F)cc1CO[C@H]1[C@H](C(C)(C)C)[C@@H](C(=O)O)N(C(=O)[C@@H]2CCCCO2)[C@H]1c1ccccc1-c1ccncc1 [Example 196, (2S,3R,4S,5S)-3-tert-butyl-4-{[2-methoxy-5-(trifluoromethyl)pyridin-3-yl]methoxy}-1-[(2S)-oxane-2-carbonyl]-5-[2-(pyridin-4-yl)phenyl]pyrrolidine-2-carboxylic acid] | 1000 to 10000 nM | 1000 to 10000 nM | +++ (≥350) | ++ (≥100 and <200)
COc1ncc(C(F)(F)F)cc1CO[C@H]1[C@H](C(C)(C)C)[C@@H](C(=O)O)N(C(=O)[C@@H]2CCCCO2)[C@H]1c1ccccc1-c1cncnc1 [Example 197, (2S,3R,4S,5S)-3-tert-butyl-4-{[2-methoxy-5-(trifluoromethyl)pyridin-3-yl]methoxy}-1-[(2S)-oxane-2-carbonyl]-5-[2-(pyrimidin-5-yl)phenyl]pyrrolidine-2-carboxylic acid] | 1000 to 10000 nM | 1000 to 10000 nM | ++ (≥150 and <350) | + (<100)
COc1ncc(C(F)(F)F)cc1CO[C@H]1[C@H](C(C)(C)C)[C@@H](C(=O)O)N(C(=O)[C@@H]2CCCCO2)[C@H]1c1ccccc1-c1ccoc1 [Example 198, (2S,3R,4S,5S)-3-tert-butyl-5-[2-(furan-3-yl)phenyl]-4-{[2-methoxy-5-(trifluoromethyl)pyridin-3-yl]methoxy}-1-[(2S)-oxane-2-carbonyl]pyrrolidine-2-carboxylic acid] | 1000 to 10000 nM | 1000 to 10000 nM | +++ (≥350) | +++ (≥200)
